Key:
Rattus norvegicus [1] = species: Rattus norvegicus; test: The percent intrinsic activity, determined by level of antagonist induced secretion; format: functional
Rattus norvegicus [2] = species: Rattus norvegicus; test: In vitro relative potency versus [DPhe12,Nle21,38]-hCRF(12-41), using rat pituitary culture assay; format: functional

| SMILES | IA (Rattus norvegicus [1]) [%] | Relative potency (Rattus norvegicus [2]) |
| --- | --- | --- |
| CCCC[C@H](NC(=O)[C@H](CCC(=O)O)NC(=O)[C@H](CC(C)C)NC(=O)[C@@H](NC(=O)[C@H](CCC(=O)O)NC(=O)[C@H](CCCN=C(N)N)NC(=O)[C@H](CC(C)C)NC(=O)[C@H](CC(C)C)NC(=O)[C@@H]1CCCCNC(=O)CC[C@H](NC(=O)[C@@H](N)CC(=O)O)C(=O)N[C@@H]([C@@H](C)O)C(=O)N[C@H](Cc2ccccc2)C(=O)N1)C(C)C)C(=O)N[C@@H](C)C(=O)N[C@@H](CCCN=C(N)N)C(=O)N[C@@H](C)C(=O)N[C@@H](CCC(=O)O)C(=O)N[C@@H](CCC(N)=O)C(=O)N[C@@H](CC(C)C)C(=O)N[C@@H](C)C(=O)N[C@@H](CCC(N)=O)C(=O)N[C@@H](CCC(N)=O)C(=O)N[C@@H](C)C(=O)N[C@@H](Cc1c[nH]cn1)C(=O)N[C@@H](CO)C(=O)N[C@@H](CC(N)=O)C(=O)N[C@@H](CCCN=C(N)N)C(=O)N[C@@H](CCCCN)C(=O)N[C@@H](CC(C)C)C(=O)N[C@@H](CCCC)C(=O)N[C@@H](CCC(=O)O)C(=O)N[C@H](C(=O)N[C@H](C(N)=O)[C@@H](C)CC)[C@@H](C)CC | 27 | 0.27 |
| CCCC[C@H](NC(=O)[C@H](CCC(=O)O)NC(=O)[C@H](CC(C)C)NC(=O)[C@@H](NC(=O)[C@H](CCC(=O)O)NC(=O)[C@H](CCCN=C(N)N)NC(=O)[C@H](CC(C)C)NC(=O)[C@@H]1CCCCNC(=O)CC[C@H](NC(=O)[C@H](CC(C)C)NC(=O)[C@@H](N)CC(=O)O)C(=O)N[C@H](Cc2ccccc2)C(=O)N[C@@H](Cc2c[nH]cn2)C(=O)N1)C(C)C)C(=O)N[C@@H](C)C(=O)N[C@@H](CCCN=C(N)N)C(=O)N[C@@H](C)C(=O)N[C@@H](CCC(=O)O)C(=O)N[C@@H](CCC(N)=O)C(=O)N[C@@H](CC(C)C)C(=O)N[C@@H](C)C(=O)N[C@@H](CCC(N)=O)C(=O)N[C@@H](CCC(N)=O)C(=O)N[C@@H](C)C(=O)N[C@@H](Cc1c[nH]cn1)C(=O)N[C@@H](CO)C(=O)N[C@@H](CC(N)=O)C(=O)N[C@@H](CCCN=C(N)N)C(=O)N[C@@H](CCCCN)C(=O)N[C@@H](CC(C)C)C(=O)N[C@@H](CCCC)C(=O)N[C@@H](CCC(=O)O)C(=O)N[C@H](C(=O)N[C@H](C(N)=O)[C@@H](C)CC)[C@@H](C)CC | 29 | 0.005 |

From ChEMBL document CHEMBL1130221, “Constrained corticotropin-releasing factor antagonists with i-(i + 3) Glu-Lys bridges” (1997)
